The values below come from US10822339B2, “Pyrrolopyrimidine five-membered azacyclic derivative and application thereof” (HANGZHOU HUADONG MEDICINE GROUP BIOPHARMACEUTICAL CO. LTD, priority 2016, dated 2020).

Like-named read-outs stand apart in the source and are kept apart here.

One data set deals with JAK2 (Homo sapiens, UniProt O60674). Nature of the data set: Enzyme activity inhibition, Caliper Mobility Shift Assay. The class given is biochemical. As to conditions: for IC50: read-out: Kinase inhibitory activity (IC50, nM) JAK2. On the procedure:
(§1) The semi-inhibitory concentration IC50 of the compounds (the concentration of the compounds required to inhibit enzyme activity to 50%) is determined by the immobilized enzyme mixed with a specific substrate and different concentrations of the test compounds. The determination method used was a Caliper Mobility Shift Assay. The kinases determined were JAK1, JAK2, JAK3 and TYK2. The standard reference compound used was staurosporine.

Another data set concerns the target T1, JAK3 (Homo sapiens, UniProt P52333).
T1 sequence (P52333 1-1124): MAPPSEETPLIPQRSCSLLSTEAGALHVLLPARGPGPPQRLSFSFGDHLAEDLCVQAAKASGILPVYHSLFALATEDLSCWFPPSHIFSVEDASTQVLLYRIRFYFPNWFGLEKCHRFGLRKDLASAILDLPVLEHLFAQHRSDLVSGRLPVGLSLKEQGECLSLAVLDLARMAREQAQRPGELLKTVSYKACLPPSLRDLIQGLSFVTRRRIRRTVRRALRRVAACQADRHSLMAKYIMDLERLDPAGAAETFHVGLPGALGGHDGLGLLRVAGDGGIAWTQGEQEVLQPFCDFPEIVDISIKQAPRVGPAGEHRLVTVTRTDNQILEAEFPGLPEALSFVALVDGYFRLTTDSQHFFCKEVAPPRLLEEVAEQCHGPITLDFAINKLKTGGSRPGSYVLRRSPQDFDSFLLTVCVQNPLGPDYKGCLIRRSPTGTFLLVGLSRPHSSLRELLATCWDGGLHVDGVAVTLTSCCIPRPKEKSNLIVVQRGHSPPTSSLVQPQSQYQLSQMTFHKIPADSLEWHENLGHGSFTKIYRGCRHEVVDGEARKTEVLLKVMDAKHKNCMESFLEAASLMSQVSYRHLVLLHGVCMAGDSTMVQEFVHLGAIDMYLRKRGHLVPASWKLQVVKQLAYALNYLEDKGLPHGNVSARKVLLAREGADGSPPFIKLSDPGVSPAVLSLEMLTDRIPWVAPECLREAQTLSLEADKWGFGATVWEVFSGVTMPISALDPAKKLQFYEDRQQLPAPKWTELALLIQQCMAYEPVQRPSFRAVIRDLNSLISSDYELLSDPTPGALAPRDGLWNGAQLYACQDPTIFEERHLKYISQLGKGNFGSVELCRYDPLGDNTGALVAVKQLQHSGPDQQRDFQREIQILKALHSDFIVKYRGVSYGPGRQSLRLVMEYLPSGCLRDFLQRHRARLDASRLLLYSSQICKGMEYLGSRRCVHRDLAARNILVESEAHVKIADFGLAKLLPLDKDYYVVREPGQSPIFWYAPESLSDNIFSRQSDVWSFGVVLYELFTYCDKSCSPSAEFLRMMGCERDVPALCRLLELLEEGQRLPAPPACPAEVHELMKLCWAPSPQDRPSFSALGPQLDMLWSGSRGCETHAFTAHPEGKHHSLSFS
The data set is described as above. Format: biochemical. Particulars: read-out: Kinase inhibitory activity (IC50, nM) JAK3. How it is done:
as §1

A further data set concerns the target TYK2 (Homo sapiens, UniProt P29597). The description is as above. Particulars: read-out: Kinase inhibitory activity (IC50, nM) TYK2. Format: biochemical. On the procedure:
as §1

The target in the next data set is T2, hERG (Homo sapiens, UniProt Q12809).
T2 construct: expressed in transfected cells; host or cells: HEK293
In words: Whole cell hERG potassium channel current blocking, automatic patch clamp. As to conditions: HEK293 cells expressing hERG stably. Format: cell-based. The source says:
Potassium channel current blocking percentage of whole cell hERG by the compounds of the present invention is studied using HEK293 cells expressing hERG stably and automatic patch clamp system detection method, the dose-effect relationship curve was obtained. The positive drug is Cisapride.

For data set [1], the system named is adjuvant-induced arthritis. In words: Rat adjuvant-induced arthritis efficacy model. Format: in vivo. Particulars: oral; for animal clinical scores / paw volumes: dose groups of 10 mg/kg and 15 mg/kg; for animal body weight increase versus vehicle group: treatment groups, 14 days dosing.
Data set [2] in a line: Pharmacokinetic experiments in Beagles. The class given is in vivo. Particulars: single administration; for half-life: read-out: Terminal t1/2 (converted). How it is done:
Experimental animals: Beagles, male and female; body weight: 7-9 kg;
Preparation of test samples: the compound (Ia) of the present invention was formulated into 2.5 mg/mL (for intravenous administration) and 2.0 mg/mL (for oral administration) for use. Routes of administration: oral/intravenous injection. Dosing capacity and frequency: 2 mL/kg (intravenous injection) or 5 mL/kg (oral), single administration.
Sample collection: blood was collected at the following time points: post-dose at 5 min, 15 min, 30 min, 1 hr, 2 hrs, 4 hrs, 8 hrs, and 24 hrs.
Sample analysis: The collected samples were tested using the LC-MS/MS method. The instrument model is API4000.
Pharmacokinetic data analysis: WinNolin was used to fit and calculate the obtained plasma concentration data according to the non-compartmental model method.

Data set [3] in a line: Toxic side effects experiment, 14 days repeated dosing. Particulars: for toxic side effects: rat, in vivo; for organ tissues, blood biochemical parameters versus vehicle control group: once daily 30 mg/kg/day for 14 days. How it is done:
The toxic side effects of the compounds of the present invention (Ia and Ib) were studied. The rats were administered once daily at 30 mg/kg/day for 14 days consecutively.

For another data set, the target named is JAK1 (Homo sapiens, UniProt P23458). In words: Enzyme activity inhibition, Caliper Mobility Shift Assay. The class given is biochemical. Particulars: read-out: Kinase inhibitory activity (IC50, nM) JAK1. How it is done:
as §1

Where [4] appears, read: both sexes, beagle, dog, plasma, intravenous injection, 5 mg/kg.
Where [5] appears, read: both sexes, beagle, dog, plasma, oral, 10 mg/kg.

Sequence of JAK2 (O60674 whole entry): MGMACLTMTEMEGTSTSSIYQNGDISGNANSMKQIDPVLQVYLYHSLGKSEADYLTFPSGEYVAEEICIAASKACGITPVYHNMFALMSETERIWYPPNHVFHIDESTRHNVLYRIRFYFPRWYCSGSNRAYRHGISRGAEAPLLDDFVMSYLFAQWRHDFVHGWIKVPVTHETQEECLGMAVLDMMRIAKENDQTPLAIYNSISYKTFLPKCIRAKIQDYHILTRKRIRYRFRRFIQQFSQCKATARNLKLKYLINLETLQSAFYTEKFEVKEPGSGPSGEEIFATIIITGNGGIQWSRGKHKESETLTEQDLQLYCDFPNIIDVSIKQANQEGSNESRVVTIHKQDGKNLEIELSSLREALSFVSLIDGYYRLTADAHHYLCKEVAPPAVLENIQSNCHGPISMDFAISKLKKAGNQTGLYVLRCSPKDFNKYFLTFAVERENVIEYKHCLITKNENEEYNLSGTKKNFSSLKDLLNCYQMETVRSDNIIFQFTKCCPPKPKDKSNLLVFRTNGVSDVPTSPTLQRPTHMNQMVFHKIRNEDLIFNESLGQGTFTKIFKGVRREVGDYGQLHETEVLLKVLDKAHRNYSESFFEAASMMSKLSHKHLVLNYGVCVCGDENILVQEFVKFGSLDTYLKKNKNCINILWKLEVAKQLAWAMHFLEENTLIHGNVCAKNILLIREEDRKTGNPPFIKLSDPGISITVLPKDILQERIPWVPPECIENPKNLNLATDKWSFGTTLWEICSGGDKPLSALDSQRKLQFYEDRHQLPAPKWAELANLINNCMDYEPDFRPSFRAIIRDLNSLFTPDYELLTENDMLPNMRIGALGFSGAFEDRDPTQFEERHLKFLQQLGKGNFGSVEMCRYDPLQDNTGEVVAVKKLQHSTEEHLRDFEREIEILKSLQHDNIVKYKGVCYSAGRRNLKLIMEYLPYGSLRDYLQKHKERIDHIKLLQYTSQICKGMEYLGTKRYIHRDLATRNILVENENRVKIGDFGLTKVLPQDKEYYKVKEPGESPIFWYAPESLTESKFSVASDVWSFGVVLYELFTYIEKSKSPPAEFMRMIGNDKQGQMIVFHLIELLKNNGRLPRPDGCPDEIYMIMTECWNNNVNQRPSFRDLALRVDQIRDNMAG
T2 sequence (Q12809 whole entry): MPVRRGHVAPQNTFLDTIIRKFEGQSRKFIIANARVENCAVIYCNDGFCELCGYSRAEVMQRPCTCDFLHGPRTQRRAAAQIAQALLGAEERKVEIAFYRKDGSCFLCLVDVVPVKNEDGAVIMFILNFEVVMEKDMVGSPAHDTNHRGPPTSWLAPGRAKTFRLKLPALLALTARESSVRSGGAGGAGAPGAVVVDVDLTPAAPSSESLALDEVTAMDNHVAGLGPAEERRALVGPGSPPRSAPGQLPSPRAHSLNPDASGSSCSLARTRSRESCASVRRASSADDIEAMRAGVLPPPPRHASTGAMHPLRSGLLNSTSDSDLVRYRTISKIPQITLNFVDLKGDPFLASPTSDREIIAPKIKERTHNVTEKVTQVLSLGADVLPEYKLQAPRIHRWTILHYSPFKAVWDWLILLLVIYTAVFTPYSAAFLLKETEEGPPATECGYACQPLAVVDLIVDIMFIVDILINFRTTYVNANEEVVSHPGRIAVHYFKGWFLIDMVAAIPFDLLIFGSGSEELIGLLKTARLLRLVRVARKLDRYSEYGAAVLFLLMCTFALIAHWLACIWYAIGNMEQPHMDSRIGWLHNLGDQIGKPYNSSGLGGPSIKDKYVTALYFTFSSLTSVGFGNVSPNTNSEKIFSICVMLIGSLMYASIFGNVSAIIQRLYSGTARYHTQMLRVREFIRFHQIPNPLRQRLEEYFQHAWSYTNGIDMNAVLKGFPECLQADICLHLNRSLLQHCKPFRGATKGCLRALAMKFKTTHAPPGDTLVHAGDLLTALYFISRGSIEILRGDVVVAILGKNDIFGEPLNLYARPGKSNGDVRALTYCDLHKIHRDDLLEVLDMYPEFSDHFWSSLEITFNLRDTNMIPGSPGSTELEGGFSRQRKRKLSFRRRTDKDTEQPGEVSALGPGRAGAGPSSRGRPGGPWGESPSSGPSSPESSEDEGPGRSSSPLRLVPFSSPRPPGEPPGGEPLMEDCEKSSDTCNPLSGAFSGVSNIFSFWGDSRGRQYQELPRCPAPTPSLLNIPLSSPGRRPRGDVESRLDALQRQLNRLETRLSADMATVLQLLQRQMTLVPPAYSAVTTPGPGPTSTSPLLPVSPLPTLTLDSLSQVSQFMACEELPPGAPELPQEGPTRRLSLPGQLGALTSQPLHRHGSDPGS
Sequence of JAK1 (P23458 whole entry): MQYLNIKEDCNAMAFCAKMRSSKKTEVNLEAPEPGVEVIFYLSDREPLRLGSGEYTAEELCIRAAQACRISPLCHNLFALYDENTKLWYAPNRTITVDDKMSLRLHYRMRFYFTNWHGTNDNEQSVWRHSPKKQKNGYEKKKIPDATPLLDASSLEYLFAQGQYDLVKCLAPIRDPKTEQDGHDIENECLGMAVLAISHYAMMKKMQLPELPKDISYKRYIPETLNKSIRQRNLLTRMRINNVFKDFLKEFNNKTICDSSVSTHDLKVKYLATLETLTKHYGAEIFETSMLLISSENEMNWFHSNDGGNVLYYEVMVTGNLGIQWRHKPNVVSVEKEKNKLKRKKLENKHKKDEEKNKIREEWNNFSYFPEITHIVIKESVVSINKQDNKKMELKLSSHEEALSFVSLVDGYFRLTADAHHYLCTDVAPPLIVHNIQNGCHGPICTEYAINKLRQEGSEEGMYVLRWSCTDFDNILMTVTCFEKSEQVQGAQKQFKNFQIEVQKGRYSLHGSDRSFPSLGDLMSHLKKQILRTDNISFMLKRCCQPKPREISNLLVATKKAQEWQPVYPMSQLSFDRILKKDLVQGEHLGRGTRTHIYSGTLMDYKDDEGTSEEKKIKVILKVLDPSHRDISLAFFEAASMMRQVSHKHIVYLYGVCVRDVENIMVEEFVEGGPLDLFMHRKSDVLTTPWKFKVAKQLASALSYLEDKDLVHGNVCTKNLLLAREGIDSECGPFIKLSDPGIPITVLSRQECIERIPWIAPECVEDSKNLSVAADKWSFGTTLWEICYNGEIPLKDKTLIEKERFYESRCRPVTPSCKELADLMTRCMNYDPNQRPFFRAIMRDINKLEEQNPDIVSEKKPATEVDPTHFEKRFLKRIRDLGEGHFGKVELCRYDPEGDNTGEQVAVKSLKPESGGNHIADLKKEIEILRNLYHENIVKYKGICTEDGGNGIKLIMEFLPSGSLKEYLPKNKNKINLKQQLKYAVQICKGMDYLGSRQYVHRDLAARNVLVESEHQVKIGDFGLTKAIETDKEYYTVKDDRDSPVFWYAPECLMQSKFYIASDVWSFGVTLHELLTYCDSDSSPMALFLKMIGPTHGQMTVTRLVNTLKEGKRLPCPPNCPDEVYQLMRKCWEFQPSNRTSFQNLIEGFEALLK
Sequence of TYK2 (P29597 whole entry): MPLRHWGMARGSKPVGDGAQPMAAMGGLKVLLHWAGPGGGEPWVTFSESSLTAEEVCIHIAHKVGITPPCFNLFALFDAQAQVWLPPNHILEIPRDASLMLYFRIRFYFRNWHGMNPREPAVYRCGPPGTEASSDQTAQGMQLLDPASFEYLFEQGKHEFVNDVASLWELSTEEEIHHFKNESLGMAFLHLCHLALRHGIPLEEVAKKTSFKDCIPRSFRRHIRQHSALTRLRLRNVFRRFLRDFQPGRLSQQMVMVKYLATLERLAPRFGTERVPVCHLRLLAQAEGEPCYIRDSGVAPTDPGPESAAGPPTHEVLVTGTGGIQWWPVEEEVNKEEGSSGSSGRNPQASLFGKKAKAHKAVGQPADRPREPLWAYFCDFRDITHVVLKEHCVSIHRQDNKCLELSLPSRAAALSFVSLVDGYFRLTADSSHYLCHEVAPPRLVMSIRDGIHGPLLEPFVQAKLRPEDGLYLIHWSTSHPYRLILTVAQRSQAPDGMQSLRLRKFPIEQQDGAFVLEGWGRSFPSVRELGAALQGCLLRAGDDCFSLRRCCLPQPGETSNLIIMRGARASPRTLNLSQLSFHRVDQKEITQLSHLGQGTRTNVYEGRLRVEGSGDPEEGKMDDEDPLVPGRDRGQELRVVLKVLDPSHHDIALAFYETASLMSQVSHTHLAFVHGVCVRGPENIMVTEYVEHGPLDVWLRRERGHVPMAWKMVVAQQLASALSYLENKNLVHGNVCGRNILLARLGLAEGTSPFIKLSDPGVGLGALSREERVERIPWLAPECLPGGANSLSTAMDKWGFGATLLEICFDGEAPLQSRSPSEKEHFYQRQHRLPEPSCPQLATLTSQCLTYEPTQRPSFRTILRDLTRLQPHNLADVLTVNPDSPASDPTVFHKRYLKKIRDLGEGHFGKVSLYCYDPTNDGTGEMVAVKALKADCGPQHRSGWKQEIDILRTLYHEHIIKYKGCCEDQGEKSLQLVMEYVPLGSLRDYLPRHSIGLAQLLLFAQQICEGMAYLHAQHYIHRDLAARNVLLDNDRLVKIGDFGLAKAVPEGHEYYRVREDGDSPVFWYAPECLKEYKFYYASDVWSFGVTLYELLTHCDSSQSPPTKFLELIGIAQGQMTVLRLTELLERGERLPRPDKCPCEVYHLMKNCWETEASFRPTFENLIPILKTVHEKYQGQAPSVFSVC

With `CCS(=O)(=O)N1CCC(CC#N)(n2cc(-c3ncnc4[nH]ccc34)cn2)CC1` [Compound of formula Ia], at JAK2, the “inhibitory effects on JAK2 kinase” value is given as “very strong inhibitory effects” and the IC50 (commonly the point on the concentration scale where inhibition reaches its midpoint) stood at 0.2 nM. Besides, the IC50 at JAK3 was 27 nM. For the same compound, the half-inhibitory concentration (IC50) on TYK2 turned out to be 7.3 nM. On hERG, the IC50 is above 30000 nM. Besides, in data set [1], the animal clinical scores result is recorded as “almost close to the normal group”, the paw volumes entry is “almost close to the normal group” and the “animal body weight increase versus vehicle group” value is “greater increases in animal body weight than that of the vehicle group”. In addition, in data set [2] (setting [4]), the area under the curve AUC(0-t) (commonly exposure summed from dosing to a finite time, without extrapolation to infinity) amounted to 10900 ng·h/mL; the MRT inf (in general, a mean duration of stay, worked out from the concentration-time curve) amounted to 4.16 h; the clearance (usually a measure of how efficiently the substance is removed, as volume per time) was 7.5 mL/min/kg; the half-life is 4.78 h. The Vd in data set [2] (both sexes, beagle, dog, plasma, intravenous injection, 5 mg/kg, read-out: Vss) worked out at 1.85 L/kg. Also, in data set [2] (setting [5]), the AUC(0-t) stood at 10600 ng·h/mL; the Cmax – broadly, the peak of the concentration-time curve – was 2500 ng/mL; the Tmax (usually the time at which the peak concentration occurs) was 0.25 h; the half-life is 5.79 h. Further, the F in data set [2] (oral, 10 mg/kg) amounted to 49.4%. The toxic side effects entry in data set [3] (30 mg/kg/day) is “no obvious toxic side effects”. In addition, the “organ tissues, blood biochemical parameters versus vehicle control group” value in data set [3] (rats) is on record as “no significant difference”.

`CCS(=O)(=O)N1CC(CC#N)(n2cc(-c3ncnc4[nH]ccc34)cn2)C1` [Baricitinib, reference compound]: the toxic side effects result in data set [3] (30 mg/kg/day) is listed as “certain toxic side effects”. Also, the “thymus and spleen tissues size” value in data set [3] (rats, 30 mg/kg/day, same experiment) was “significantly reduced (a quarter of the normal size)”.

`CCS(=O)(=O)N1CCC(CC#N)(n2ccc(-c3ncnc4[nH]ccc34)c2)CC1` [Compound of formula Ib]: the IC50 on JAK1 was determined as 31 nM. For the same compound, on JAK2, the “inhibitory effects on JAK2 kinase” value is given as “very strong inhibitory effects” and the IC50 was found to be 0.4 nM. Besides, the selective inhibitory activities result at JAK2 (JAK2 versus the other kinases tested) is “good selective inhibitory activities”. The compound further came in with an IC50 against hERG above 30000 nM. In data set [1], the animal clinical scores entry is “almost close to the normal group”, the paw volumes entry is given as “almost close to the normal group” and the “animal body weight increase versus vehicle group” value is recorded as “greater increases in animal body weight than that of the vehicle group”. Besides, the toxic side effects entry in data set [3] (30 mg/kg/day) was “no obvious toxic side effects”. In data set [3] (rats), the “organ tissues, blood biochemical parameters versus vehicle control group” value is on record as “no significant difference”.
